Where two headings read alike, the source gives them in different places.
How the values were obtained:
[1] = Vitamin C osmosis comparison using autoradiography (Test Example 3); assay type: in vivo, hairless rat
Description: Vitamin C osmosis comparison using autoradiography.
These figures (photographs) display a cross-section of rat skin tissue, wherein black dots in the epidermis and dermis indicate vitamin C.

[2] = Vitamin C osmosis into the human skin (Test Example 1), iontophoretic introduction, HPLC of epidermis and dermis; settings: human thigh skin, five hours after five minutes iontophoretic introduction
Description: <Experiment Procedure> • (1) Vitamin C was iontophoretically introduced for five minutes. • (2) After five hours, 5 mm of the skin was punched, separated into epidermis and dermis, and freeze dried. • (3) The Vitamin C concentration in the epidermis and dermis was determined by HPLC. • 1) The freeze dry samples were dissolved in 500 □1 of a moving layer solvent. • 2) The solution was ultrasonically treated for 10 minutes, • 3) filtered through a 0.2 mm filter, and • 4) subjected to HPLC measurement.
Moving layer: A 0.08 M CH3COOH—CH3COONa buffer solution (pH 5.0) containing 2.8 mM Mn-hexyl amine, 0.1 mM disodium edetate, and 2% methanol. • Measuring amount: 20 □1 • Flow rate: 0.8 ml/min. • Wavelength: 254 nm • Column: ODS column oven: 40° C.

[3] = rat, in vivo
Description: The present inventor introduced a 0.1% diluted solution of C-ascorbic acid (hereinafter referred to as Vitamin C) into the back skin of a rat by simple external application and iontophoresis to compare osmosis of vitamin C using a scintillation counter and autoradiography.
A 0.1% vitamin C solution was applied to the back skin of a hairless rat for 20 seconds by iontophoresis or for 10 minutes by simple external application. Tissue samples were collected at prescribed intervals (Samples of iontophoresis application: control, 0.5 h, 1 h, 2 h, 3 h, and 6 h; samples of simple external application: control, 1 h, 2 h, 3 h, and 6 h). Each collected sample was cut into two pieces, one of which was separated into epidermis and dermis for use as a scintillation counter sample. A lyophilized section was prepared from the other piece of the sample and developed for autoradiography analysis. The vitamin C concentration in each tissue was determined using IR analysis.

SMILES: O=C1O[C@H]([C@@H](O)CO)C(O)=C1O [Vitamin C, C-ascorbic acid]
- penetration from the epidermis into the dermis (autoradiography) ([1]; iontophoresis application, rat back skin (FIG. 7)): started to penetrate at 0.5 hour and more abundantly after one hour
- penetration from the epidermis into the dermis (autoradiography) ([1]; simple external application, rat back skin (FIG. 6)): progressively penetrated from the epidermis into the dermis over time
- Dermis (ppm), Vitamin C concentration [2]: 0.05 ppm
- Epidermis (ppm), Vitamin C concentration [2]: 0.02 ppm
- osmosis by iontophoresis application relative to simple external application ([3]; hairless): about 30 times
- time at which concentration reached maximum ([3]; hairless): 0.5 h
- time at which concentration reached maximum [3]: one

Reference: patent US20050191252A1, “Skin beautification cosmetic system using iontophoresis device, ultrasonic facial stimulator, and cosmetic additive” (priority 2004, published 2005)
